pEC50: −log10 of the molar value.
The molecules below were run on ring stage parasites (Pf) (assay: Parasite lactate dehydrogenase (LDH) growth assay (Parasite Assay, PfLDH Assay)). Conditions: Plasmodium falciparum, 72 h, Table 3; 72 hours growth, LDH readout; read-out: EC50.
Format: cell-based, P. falciparum

CCC1(CC)CC(=O)N([C@H](c2cccnc2)[C@H]2C[C@@H]2C(=O)N[C@H]2C[C@@H](C(F)(F)F)Oc3ccccc32)C(=N)N1 [Example 12] and CC[C@]1(C)CC(=O)N([C@H](c2cccnc2)[C@H]2C[C@@H]2C(=O)N[C@H]2CC(C)(C)Oc3ccccc32)C(=N)N1 [Example 63] are within 0.2 log units of each other in pEC50: 9.05 for the first, 8.92 for the second.

Going from COCC[C@H]([C@H]1C[C@@H]1C(=O)N[C@H]1C[C@@H](C(F)(F)F)Oc2ccccc21)N1C(=N)N[C@](C)(C(C)C)CC1=O [Example 21A] to CCC1(CC)CC(NC(=O)[C@H]2C[C@@H]2[C@@H](CCOC)N2C(=N)NC(C)(C)CC2=O)c2ccccc2O1 (some centres unmarked) [Example 92A], the pEC50 rises from 6.59 to 8.12 (1.53 log units).

CCC1(CC)CC(=O)N([C@H](CCOC)[C@H]2C[C@@H]2C(=O)N[C@@H]2c3ccccc3OCC2(C)C)C(=N)N1 [Example 19A] and CCC1(CC)CC(=O)N([C@H](CCOC)[C@H]2C[C@@H]2C(=O)N[C@@H]2c3ccccc3C[C@@H]2O)C(=N)N1 [Example 13] are within 0.2 log units of each other in pEC50: 7.55 for the first, 7.62 for the second.

Going from COCC[C@H]([C@H]1C[C@@H]1C(=O)N[C@H]1CC(C)(C)Oc2cc(C)c(Cl)cc21)N1C(=N)NC(C)(C)CC1=O [Example 137B] to COCC[C@H]([C@H]1C[C@@H]1C(=O)N[C@@H]1CC(C)(C)Oc2cc(C)c(Cl)cc21)N1C(=N)NC(C)(C)CC1=O [Example 137A], the pEC50 falls from 8.19 to 7.92 (0.27 log units). The first is the more potent here.

First: CCC1(CC)CC(=O)N(C[C@H]2C(C)[C@@H]2C(=O)N[C@@H]2c3ccccc3C[C@H]2O)C(=N)N1 (some centres unmarked) [Example 33]
Second: CCC1(CC)CC(=O)N(C[C@@H]2[C@@H](C(=O)N[C@H]3CC(C)(C)Oc4ccccc43)C2(C)C)C(=N)N1 [Example 34]
The pEC50 of the first is 0.58 log units higher: 7.12 for the first, 6.54 for the second. The first is the more potent here.

CC1(C)CC(=O)N(C[C@H]2C[C@@H]2C(=O)N[C@H]2CC(C)(C)Oc3ccc(C(F)(F)F)cc32)C(=N)N1 [Example 100] and CC1(C)CC(=O)N(C[C@H]2C[C@@H]2C(=O)NC2CC(C)(C)Oc3c(C(F)(F)F)ccc(F)c32)C(=N)N1 (some centres unmarked) [Example 99] are within 0.2 log units of each other in pEC50: 6.77 for the first, 6.89 for the second.

First: CC1(C)CC(=O)N([C@@H](c2cccnc2)[C@H]2C[C@@H]2C(=O)N[C@H]2CC(C)(C)Oc3cc(Cl)ccc32)C(=N)N1 [Example 91A]
Second: CC1(C)CC(=O)N([C@H](c2cccnc2)[C@H]2C[C@@H]2C(=O)N[C@H]2CC(C)(C)Oc3cc(Cl)ccc32)C(=N)N1 [Example 91B]
The pEC50 of the first is 0.53 log units higher: 9.10 for the first, 8.57 for the second.

Compared with COCC[C@H]([C@H]1C[C@@H]1C(=O)N[C@H]1CC(C)(C)Oc2cccc(Cl)c21)N1C(=N)NC(C)(C)CC1=O [Example 116A], COCC[C@H]([C@H]1C[C@@H]1C(=O)N[C@H]1CC(C)(C)Oc2cc(C)ccc21)N1C(=N)NC(C)(C)CC1=O [Example 83A] is 0.92 log units lower in pEC50: 9.10 for the first, 8.18 for the second.

CC1(C)CC(=O)N([C@H](c2cccnc2)[C@H]2C[C@@H]2C(=O)NC2CC(C)(C)Oc3c(F)cc(F)cc32)C(=N)N1 (some centres unmarked) [Example 122A] and CC1(C)CC(=O)N([C@H](c2cccnc2)[C@H]2C[C@@H]2C(=O)NC2CC(C)(C)Oc3c(F)cccc32)C(=N)N1 (some centres unmarked) [Example 93A] are within 0.2 log units of each other in pEC50: 8.64 for the first, 8.48 for the second.

Going from COc1ccc([C@H]([C@H]2C[C@@H]2C(=O)N[C@@H]2c3ccccc3OC(C)(C)[C@H]2O)N2C(=N)NC(C)(C)CC2=O)cn1 [Example 39] to COc1cncc([C@H]([C@H]2C[C@@H]2C(=O)N[C@@H]2c3ccccc3OC(C)(C)[C@H]2O)N2C(=N)NC(C)(C)CC2=O)c1 [Example 42], the pEC50 falls from 8.00 to 7.74 (0.26 log units).

Compared with CC[C@]1(C)CC(=O)N([C@H](CCOC)[C@H]2C[C@@H]2C(=O)N[C@@H]2c3ccccc3OC(C)(C)[C@H]2O)C(=N)N1 [Example 61], CC[C@]1(C)CC(=O)N([C@H](CCOC)[C@H]2C[C@@H]2C(=O)N[C@H]2CC(C)(C)Oc3ccc(Cl)cc32)C(=N)N1 [Example 124] is 0.94 log units higher in pEC50: 8.16 for the first, 9.10 for the second.

CC1(C)CC(=O)N([C@H](c2ccc(C#N)cc2)[C@H]2C[C@@H]2C(=O)N[C@H]2CC(C)(C)Oc3ccccc32)C(=N)N1 [Example 45A] and CC1(C)CC(=O)N([C@H](c2cccc(C#N)c2)[C@H]2C[C@@H]2C(=O)N[C@H]2CC(C)(C)Oc3ccccc32)C(=N)N1 [Example 50] are within 0.2 log units of each other in pEC50: 8.55 for the first, 8.52 for the second.

Compared with CCC1(CC)CC(=O)N([C@H](c2cccnc2)[C@H]2C(C)[C@@H]2C(=O)N[C@H]2CC(C)(C)Oc3ccccc32)C(=N)N1 (some centres unmarked) [Example 56B], CCC1(CC)CC(=O)N([C@@H](c2cccnc2)[C@H]2C(C)[C@@H]2C(=O)N[C@H]2CC(C)(C)Oc3ccccc32)C(=N)N1 (some centres unmarked) [Example 56A] is 1.96 log units lower in pEC50: 9.15 for the first, 7.19 for the second. The first is the more potent here.

Compared with CC[C@@]1(C)CC(=O)N([C@H](c2cncc(F)c2)[C@H]2C[C@@H]2C(=O)N[C@@H]2c3ccccc3OCC2(C)C)C(=N)N1 [Example 102A], COCC[C@H]([C@H]1C[C@@H]1C(=O)NC1CC(C)(C)Oc2cc(F)ccc21)N1C(=N)NC(C)(C)CC1=O (some centres unmarked) [Example 76A] is 1.33 log units lower in pEC50: 9.10 for the first, 7.77 for the second. The first is the more potent here.

With CC1(C)CC(=O)N(C[C@H]2C[C@@H]2C(=O)NC2CC(C)(C)Oc3c(Cl)cc(Cl)cc32)C(=N)N1 (some centres unmarked) [Example 97A] the pEC50 was 6.74.

Same assay, conditions: Plasmodium falciparum, 72 h, Table 4; 72 hours growth, LDH readout; read-out: EC50 (Table 4)

Going from CCC1(CC)CC(=O)N([C@H](CCOC)[C@H]2C[C@@H]2C(=O)N[C@H]2c3ccccc3OC(C)(C)[C@@H]2O)C(=N)N1 [Example 144] to CCC1(CC)CC(=O)N([C@H](CCOC)[C@H]2C[C@@H]2C(=O)N[C@H]2CC(C)(C)Oc3ccc(Cl)cc32)C(=N)N1 [Example 146], the pEC50 rises from 6.78 to 8.96 (2.18 log units). The second is the more potent here.

Same assay, conditions: Table 3; 72 hours growth, LDH readout; read-out: EC50

CCC1(C)CC(NC(=O)[C@H]2C[C@@H]2[C@@H](CCOC)N2C(=N)NC(C)(C)CC2=O)c2ccccc2O1 (single isomer, unassigned) [Example 75B] and CCC1(CC)CC(NC(=O)[C@H]2C[C@@H]2[C@@H](CCOC)N2C(=N)NC(C)(C)CC2=O)c2ccccc2O1 (some centres unmarked) [Example 92B] are within 0.2 log units of each other in pEC50: 8.12 for the first, 8.14 for the second.

First: CC[C@]1(C)CC(=O)N([C@H](CCOC)[C@H]2C[C@@H]2C(=O)NC2CC(C)(C)Oc3ccc(F)cc32)C(=N)N1 (single isomer, unassigned) [Example 130A]
Second: CC[C@]1(C)CC(=O)N([C@H](CCOC)[C@H]2C[C@@H]2C(=O)NC2CC(C)(C)Oc3ccc(OC(F)(F)F)cc32)C(=N)N1 (some centres unmarked) [Example 129B]
The pEC50 of the first is 0.45 log units higher: 9.05 for the first, 8.60 for the second.

CC1(C)CC(=O)N([C@H](c2cccnc2)[C@H]2C[C@@H]2C(=O)NC2CC(C)(C)Oc3ccc(C(F)(F)F)cc32)C(=N)N1 (single isomer, unassigned) [Example 109A] and COc1ccc2c(c1)OC(C)(C)C[C@@H]2NC(=O)[C@H]1C[C@@H]1[C@H](c1cccnc1)N1C(=N)NC(C)(C)CC1=O [Example 65A] are within 0.2 log units of each other in pEC50: 8.64 for the first, 8.55 for the second.

First: CC(C)C1(C)CC(NC(=O)[C@H]2C[C@@H]2[C@@H](c2cccnc2)N2C(=N)NC(C)(C)CC2=O)c2ccccc2O1 (single isomer, unassigned) [Example 81A]
Second: CCC1(C)CC(NC(=O)[C@H]2C[C@@H]2[C@@H](c2cccnc2)N2C(=N)NC(C)(C)CC2=O)c2ccccc2O1 (single isomer, unassigned) [Example 105C]
The pEC50 of the first is 0.53 log units lower: 8.57 for the first, 9.10 for the second. The second is the more potent here.

First: CCC1(CC)CC(=O)N(C[C@H]2C(C)[C@@H]2C(=O)N[C@@H]2c3ccccc3OCC2(C)O)C(=N)N1 (single isomer, unassigned) [Example 35A]
Second: CCC1(CC)CC(=O)N(C[C@H]2C(C)[C@@H]2C(=O)N[C@H]2c3ccccc3CC2(C)O)C(=N)N1 (single isomer, unassigned) [Example 29A]
The pEC50 of the first is 0.38 log units higher: 7.07 for the first, 6.69 for the second.

Going from COCC1(C)CC(NC(=O)[C@H]2C[C@@H]2[C@@H](c2cccnc2)N2C(=N)NC(C)(C)CC2=O)c2ccccc2O1 (single isomer, unassigned) [Example 108A] to CC(C)C1(C)CC(NC(=O)[C@H]2C[C@@H]2[C@@H](c2cccnc2)N2C(=N)NC(C)(C)CC2=O)c2ccccc2O1 (single isomer, unassigned) [Example 81C], the pEC50 rises from 7.15 to 9.05 (1.90 log units). The second is the more potent here.

Going from CC[C@@]1(C)CC(=O)N(C(c2cncc(F)c2)[C@H]2C[C@@H]2C(=O)N[C@H]2CC(C)(C)Oc3ccc(F)cc32)C(=N)N1 (some centres unmarked) [Example 69B] to CC[C@@]1(C)CC(=O)N(C(c2cncc(F)c2)[C@H]2C[C@@H]2C(=O)N[C@H]2CC(C)(C)Oc3ccccc32)C(=N)N1 (some centres unmarked) [Example 67B], the pEC50 rises from 8.72 to 9.22 (0.50 log units).

First: CCC1(CC)CC(=O)N(C[C@H]2C(C)[C@@H]2C(=O)N[C@H]2CC(C)(C)Oc3ccccc32)C(=N)N1 (single isomer, unassigned) [Example 25A]
Second: CCC1(CC)CC(=O)N(C[C@H]2C(C)[C@@H]2C(=O)N[C@@H]2c3ccccc3OC(C)(C)[C@H]2O)C(=N)N1 (single isomer, unassigned) [Example 30A]
The pEC50 of the first is 0.27 log units lower: 7.08 for the first, 7.35 for the second. The second is the more potent here.

Compared with COCC[C@H]([C@H]1C[C@@H]1C(=O)NC1CC(C)(C)Oc2ccc(OC(F)(F)F)cc21)N1C(=N)NC(C)(C)CC1=O (some centres unmarked) [Example 126B], CC1(C)CC(=O)N(C[C@H]2C[C@@H]2C(=O)NC2CC(C)(C)Oc3ccc(OC(F)(F)F)cc32)C(=N)N1 (some centres unmarked) [Example 125B] is 1.28 log units lower in pEC50: 8.08 for the first, 6.80 for the second.

Compared with COCC[C@H]([C@H]1C[C@@H]1C(=O)NC1CC(C)(C)Oc2c(Cl)cccc21)N1C(=N)NC(C)(C)CC1=O (some centres unmarked) [Example 112B], CC[C@@]1(C)CC(=O)N(C(c2cncc(F)c2)[C@H]2C[C@@H]2C(=O)N[C@H]2CC(C)(C)Oc3ccc(F)cc32)C(=N)N1 (some centres unmarked) [Example 69D] is 1.49 log units higher in pEC50: 8.03 for the first, 9.52 for the second. The second is the more potent here.

In the case of CC1[C@H](C(c2cccnc2)N2C(=N)NC(C)(C)CC2=O)[C@H]1C(=O)N[C@H]1C[C@H](C(F)(F)F)Oc2ccccc21 (single isomer, unassigned) [Example 54A], the pEC50 was 9.00.

Same assay, conditions: Table 4; 72 hours growth, LDH readout; read-out: EC50 (Table 4)

In the case of CCC1(CC)CC(=O)N(C(CC(C)OC)[C@H]2C[C@@H]2C(=O)N[C@@H]2CC(C)(C)Oc3ccccc32)C(=N)N1 (single isomer, unassigned) [Example 143C], the pEC50 was 7.24.

From patent US20240131028A1, “CHEMOVACCINATION AGAINST PLASMODIUM INFECTION WITH SELECTIVE PLASMEPSIN X INHIBITORS” (Merck Sharp & Dohme LLC, priority 2021, published 2024)
